Test in all cases: growth of human tumour cells (NCI), 48 h
Test [1] has as its system ACHN renal.
In test [2] the test system is EKVX NSCLC.
Test [3] deals with HS 578T breast.
Test [4] concerns KM12 colon.
Test [5] concerns LOX IMVI melanoma.
The subject of test [6] is MOLT-4 leukemia.
The subject of test [7] is OVCAR-4 ovarian.
In test [8] the test system is SNB-75 CNS.
Test [9] deals with U251 CNS.
Test [10] relates to UACC-62 melanoma.

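In this assay, cells in 96-well plates receive the compound at five concentrations for 48 hours. Endpoints are linearly interpolated between the surrounding concentrations. Abbreviation: GI50, concentration required for 50% inhibition of growth. TGI: total growth inhibition.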

Take `Fc1ccc(Nc2nc(Nc3ccc(-c4nc5ccccc5[nH]4)cc3)nc(N3CCCC3)n2)cc1`: the GI50 is 3.08 µM in [1]; 2.27 µM in test [2]; 2.16 µM in test [3]; 2.98 µM in test [4]; 1.77 µM in [5]; 2.19 µM in [6]. Also, the GI50 in test [7] is 3.65 µM; in test [8] it was 1.7 µM; in test [9], 2.37 µM; in test [10] it was 1.77 µM. The TGI amounted to 10.4 µM in test [1]; 12.8 µM in test [2]; 5.82 µM in [3]; 10 µM in test [4]; 3.55 µM in test [5]; 5.74 µM in [6]. Moreover, the TGI turned out to be 14.6 µM in [7], 3.89 µM in test [8], 5.82 µM in test [9] and 3.61 µM in test [10].

As to `CSC(=S)N/N=C(\C)c1ccccn1`, the GI50 in [1] is 0.232 µM; in test [2], 0.117 µM; in test [3], 2.82 µM; in test [4], 0.346 µM; in test [5] it was 0.206 µM; in test [6], under 0.0145 µM. The GI50 in test [7] was under 0.0169 µM; in test [8] it was 1.47 µM; in [9], 0.199 µM; in test [10], 0.181 µM. Further, the TGI in test [1] was 11.8 µM; in [2] it was 17.5 µM; in test [3], 36.3 µM; in test [4], 14.3 µM; in test [5] it was 12.6 µM; in test [6], 0.975 µM. For the same compound, the TGI in [7] amounted to 10.6 µM; in test [8], 32.3 µM; in test [9], 13.6 µM; in [10], 0.955 µM.

Take `COc1ccc2c(CNCCCCO)cc3cc4c(cc3c2c1)OCO4`: the GI50 is 0.891 µM in test [1]; 2.78 µM in test [2]; 0.929 µM in test [3]; 1.83 µM in test [4]; 1.25 µM in test [5]; 0.263 µM in [6]. Besides, the GI50 in test [7] is 2.31 µM; in test [8], 2.02 µM; in test [9], 1.85 µM; in test [10], 1.59 µM. Also, the TGI in test [1] stood at 3.7 µM; in test [2] it was 11.4 µM; in [3] it was 4.1 µM; in test [4], 7.33 µM; in test [5] it was 5.37 µM; in test [6], 3.94 µM. Moreover, the TGI in test [7] turned out to be 7.54 µM; in test [8] it was 6.67 µM; in test [9], 7.29 µM; in [10], 3.29 µM.

Turning to `CCOC1NC(=O)Oc2ccccc21` (configuration not stated), the TGI in test [1], in test [2], in test [3], in test [4], in [5] and in [6] was over 100 µM in each case. Also, the TGI in test [7], in test [8], in test [9] and in [10] was over 100 µM each time.

As to `Oc1ccc2ccccc2c1/C=N\Nc1ccccn1`, the GI50 was 0.331 µM in test [1]; 0.656 µM in test [2]; 1.4 µM in [3]; 1.09 µM in [4]; 0.275 µM in test [5]; 0.358 µM in [6]. The GI50 in test [7] is 1.24 µM; in test [8], 1.03 µM; in [9] it was 0.427 µM; in test [10], 0.692 µM. Further, the TGI in test [2] is over 21.6 µM; in test [3] it was over 34.5 µM; in [4], over 100 µM; in test [6], over 100 µM; in [7], over 100 µM; in [8] it was 10.3 µM. Further, the TGI in test [9] is 97.3 µM; in test [10], 13.1 µM.

Turning to `COC(=O)c1oc2c(C(=O)/C=C/c3ccc(OC)cc3)c(OCCCN3CCCCC3)ccc2c1C`, the GI50 in [1] was 1.03 µM; in test [2], 2.01 µM; in [3], 2.58 µM; in [4] it was 1.7 µM; in [5], 1.45 µM; in [6] it was 1.6 µM. The GI50 is 2.49 µM in [7], 1.89 µM in [8], 1.49 µM in [9] and 1.54 µM in [10]. For the same compound, the TGI in test [1] was determined as 2.54 µM; in test [2] it was 7.18 µM; in test [4], 3.66 µM; in test [5], 2.82 µM; in [6], 4.97 µM; in test [7] it was 9.15 µM. Besides, the figures for the TGI in test [8], in [9] and in test [10] were 6.37 µM, 2.88 µM and 3 µM, respectively.

As for `Cc1ccc(/C=C(\C#N)n2nnc3cc(F)c(F)cc32)cc1`, the GI50 in test [1] was 4.2 µM; in [2], 3.86 µM; in test [3] it was 4.17 µM; in [4], 2.65 µM; in test [5], 2.88 µM; in test [6], 2.7 µM. The GI50 in test [7] is 2.58 µM; in test [8], 2.45 µM; in test [9], 1.48 µM; in [10], 3.71 µM. The TGI in [1] was found to be 34.7 µM; in [2], 41.2 µM; in [3] it was 44.9 µM; in [4] it was 15.4 µM; in test [5], 11.4 µM; in [6], 36.5 µM. Besides, the TGI came out at 15.4 µM in test [7], 84.5 µM in test [8], 2.94 µM in [9] and 17.5 µM in [10].

Turning to `CC(C)(C)c1ccc(-c2nnc(SCc3ccc(Cl)cc3)n2-c2cccc(C(F)(F)F)c2)cc1`, the TGI is over 100 µM in test [1]; 81.9 µM in [2]; over 100 µM in test [3]; over 100 µM in test [4]; over 100 µM in test [5]; over 67.1 µM in test [6]. Moreover, the TGI in test [7] is over 100 µM; in test [8], over 94.1 µM; in [9], over 100 µM; in test [10], over 100 µM.

With `O=C1/C(=C/c2ccc(O)cc2)CCC1CNc1ccc(Cl)cc1` (configuration not stated), the TGI in test [1] is 11.6 µM; in test [2], 21.5 µM; in test [3], over 100 µM; in [4] it was 8.45 µM; in [5], 7.24 µM; in test [6] it was 6.45 µM. Moreover, the TGI in test [7] stood at 8.86 µM; in test [8], 29.7 µM; in [9] it was 21.3 µM; in [10] it was 5.86 µM.

`CO/N=C1/c2cc(OC)ccc2-c2c(NOC)nc3ccccc3c21`: the GI50 in [1] was 14.3 µM; in [2], 31.7 µM; in test [3], 18 µM; in test [4], 37.5 µM; in test [5], 26.7 µM; in test [6], 47 µM. Further, the GI50 is 27.3 µM in test [7], 14.6 µM in [8], 13 µM in test [9] and 27.5 µM in test [10]. Further, the TGI is 31.3 µM in test [1]; over 100 µM in test [2]; 51 µM in test [3]; over 100 µM in test [4]; over 100 µM in test [5]; over 100 µM in test [6]. In addition, the TGI in [7] is over 100 µM; in test [8], 40.2 µM; in test [9], 25.7 µM; in test [10], over 100 µM.

As for `NCCOc1ccccn1`, the TGI in test [1], in test [2], in test [3], in test [4], in [5] and in test [6] was over 100 µM in each case. Besides, the TGI in [7], in test [8], in test [9] and in [10] was over 100 µM in each case.

With `Cc1ccccc1NC(=O)NC(CC(N)=O)c1ccc2c(c1)nc(-c1cccc(Oc3ccc(C(C)(C)C)cc3)c1)n2CCCN1CCCCC1C` (configuration not stated), the GI50 was 9.08 µM in test [1]; 5.37 µM in test [2]; 5.58 µM in test [3]; 2.34 µM in test [4]; 1.67 µM in test [5]; 3.39 µM in [6]. Besides, the GI50 in test [7] is 3.07 µM; in test [8] it was 2.41 µM; in test [9], 1.75 µM; in test [10] it was 1.71 µM. The TGI is 22.3 µM in [1]; 11.5 µM in [2]; 16.3 µM in test [3]; 5.63 µM in test [4]; 3.14 µM in test [5]; 9.65 µM in [6]. Moreover, the TGI is 8.39 µM in test [7], 6.5 µM in [8], 3.23 µM in test [9] and 3.22 µM in test [10].

On to `O=C(CC1C(=O)Nc2ccccc2S1=O)Nc1cccc(Cl)c1` (configuration not stated), for which the TGI is over 100 µM in test [1]; over 87.4 µM in test [2]; over 100 µM in test [3]; over 81.5 µM in test [4]; over 100 µM in test [5]; over 67.2 µM in [6]. Further, the TGI in test [7] was over 100 µM; in test [8], 64.1 µM; in test [9], over 100 µM; in test [10], over 76.1 µM.

Consider `COc1cc(/C=C/C(=O)c2ccc(Nc3nc(Nc4ccc(F)cc4)nc(Nc4ccc(F)cc4)n3)cc2)cc(OC)c1OC`, for which the GI50 in test [1] was 21.2 µM; in test [2] it was 59.1 µM; in [3], 16.7 µM; in test [4] it was 8.79 µM; in test [5] it was 6.73 µM; in [6], 1.93 µM. The GI50 was over 100 µM in test [7], over 100 µM in test [8], 7.92 µM in [9] and 10.7 µM in test [10]. The TGI in test [1], in [2], in [3], in [4], in test [5] and in test [6] was over 100 µM each time. In addition, the TGI in [7] was over 100 µM; in [8], over 100 µM; in [9], over 100 µM; in test [10] it was 41.4 µM.

As to `CC(=O)Nc1ccc(C(=O)N[C@@H]2C(=O)N3[C@@H]2SC(C)(C)[C@@H]3C(=O)O)cn1`, the TGI in test [1], in [2], in test [3], in [4], in test [5] and in test [6] was over 100 µM each time. For the same compound, the TGI in test [7], in [8], in test [9] and in [10] was over 100 µM in each case.

These data come from PubChem BioAssay (NCI).
